Results on seven compounds are retold here after patent US7776924B2, “Nitroaniline-based alkylating agents and their use as prodrugs” (Auckland Uniservices Limited, priority 2002, dated 2010).

Holding throughout (assay type): cell-based
The subject of series [1] is WIDR. The series can be described thus: Cytotoxicity in wild-type (NR−) human colon cell line WIDR.
Series [2] concerns A549 human lung carcinoma cells. The series can be described thus: Cytotoxicity in oxic and anoxic wild-type A549 human lung carcinoma cells. The settings on record: 4 h exposure; for IC50: anoxic, read-out: IC50 WT anoxic.
Series [3] relates to A549 transfected with human cytochrome P450 reductase (P450R). The series can be described thus: Cytotoxicity in oxic and anoxic A549 cells transfected with human cytochrome P450 reductase. As to conditions: 4 h exposure; for IC50: anoxic.
Series [4] deals with WC14.10. The series can be described thus: Cytotoxicity in NTR-transfected (NR+) human colon cell line WC14.10. The settings on record: for IC50: WC14.10 NTR-transfected.
The test system of series [5] is SKOV3. The series can be described thus: Cytotoxicity in wild-type (NR−) human ovarian cell line SKOV3. As to conditions: 18 h exposure.
For series [6], the system named is SC3.2. The series can be described thus: Cytotoxicity in NTR-transfected (NR+) human ovarian cell line SC3.2. The settings on record: for IC50: SC3.2 NTR-transfected, 18 h exposure; for Ratio = IC50(NR−)/IC50(NR+) Human Ovarian: SKOV3 / SC3.2, 18 h exposure.

Marks after values point to notes of the source that are not given here.

What is called IC50 is the concentration at which inhibition is half-maximal. Regarding `CS(=O)(=O)OCCN(CCBr)c1c([N+](=O)[O-])ccc(C(=O)NCCO)c1[N+](=O)[O-]` [IIc3, 2-((2-Bromoethyl)-3-{[(2-hydroxyethyl)amino]carbonyl}-2,6-dinitroanilino)ethyl methanesulfonate], the 50% inhibitory concentration (IC50) in series [1] (4 h exposure) amounted to 425 µM; in series [2], 28 µM; in series [3], 2.9 µM; in series [4] (4 h exposure), 5.1 µM. Also, the “WT Ratio = IC50(aerobic)/IC50(anoxic)” value in series [2] came out at 20. Further, the “P450R ratio = IC50(aerobic)/IC50(anoxic)” value in series [3] was 146. Besides, the “Ratio = IC50(NR−)/IC50(NR+) Human colon” value in series [4] (WIDR / WC14.10, 4 h exposure) is reported as 83^f.
For `CS(=O)(=O)OCCN(CCBr)c1c([N+](=O)[O-])ccc(C(=O)NCCCO)c1[N+](=O)[O-]` [IIc5, 2-((2-Bromoethyl)-3-{[(3-hydroxypropyl)amino]carbonyl}-2,6-dinitroanilino)ethyl methanesulfonate], the half-maximal inhibitory concentration (IC50) in series [1] (18 h exposure) worked out at 209 µM; in series [2] it was 52 µM; in series [3], 4.5 µM; in series [5] it was 280 µM; in series [6], 0.57 µM; in series [4] (18 h exposure), 0.85 µM. Also, the “WT Ratio = IC50(aerobic)/IC50(anoxic)” value in series [2] was 30. Also, in series [3], the “P450R ratio = IC50(aerobic)/IC50(anoxic)” value came to 134. For the same compound, the “Ratio = IC50(NR−)/IC50(NR+) Human Ovarian” value in series [6] stood at 497. In series [4] (WIDR / WC14.10, 18 h exposure), the “Ratio = IC50(NR−)/IC50(NR+) Human colon” value is listed as 301.
For `CS(=O)(=O)OCCN(CCI)c1c(C(=O)NCCO)cc([N+](=O)[O-])cc1[N+](=O)[O-]` [IIb4, 2-((2-Iodoethyl)-2-{[(2-hydroxyethyl)amino]carbonyl}-4,6-dinitroanilino)ethyl methanesulfonate], the half-maximal inhibitory concentration (IC50) was 9 µM in series [1] (4 h exposure), 4.5 µM in series [2], 0.45 µM in series [3] and 0.29 µM in series [4] (4 h exposure). Further, the “WT Ratio = IC50(aerobic)/IC50(anoxic)” value in series [2] came to 7. In series [3], the “P450R ratio = IC50(aerobic)/IC50(anoxic)” value is 95. In series [4] (WIDR / WC14.10, 4 h exposure), the “Ratio = IC50(NR−)/IC50(NR+) Human colon” value is given as 31^f.
`CS(=O)(=O)OCCN(CCBr)c1cc(C(=O)NCCCO)c([N+](=O)[O-])cc1[N+](=O)[O-]` [IIa6, 2-((2-Bromoethyl)5-{[(3-hydroxypropyl)amino]carbonyl}-2,4-dinitroanilino)ethyl methanesulfonate]: the IC50 in series [1] (18 h exposure) was 453 µM; in series [2] it was 348 µM; in series [3], 31 µM; in series [4] (18 h exposure), 5 µM. In addition, the “WT Ratio = IC50(aerobic)/IC50(anoxic)” value in series [2] is 2.4. The “P450R ratio = IC50(aerobic)/IC50(anoxic)” value in series [3] came to 18. The “Ratio = IC50(NR−)/IC50(NR+) Human colon” value in series [4] (WIDR / WC14.10, 18 h exposure) is reported as 91.
As for `CC(O)CNC(=O)c1cc([N+](=O)[O-])cc([N+](=O)[O-])c1N(CCBr)CCOS(C)(=O)=O` (centres unmarked) [IIb5, 2-((2-Bromoethyl)-2-{[(2-hydroxypropyl)amino]carbonyl}-4,6-dinitroanilino)ethyl methanesulfonate], the IC50 in series [1] (4 h exposure) is 2.9 µM; in series [2], 4 µM; in series [3] it was 0.34 µM; in series [4] (4 h exposure), 0.25 µM. The “WT Ratio = IC50(aerobic)/IC50(anoxic)” value in series [2] is 19. In addition, the “P450R ratio = IC50(aerobic)/IC50(anoxic)” value in series [3] came to 150. The “Ratio = IC50(NR−)/IC50(NR+) Human colon” value in series [4] (WIDR / WC14.10, 4 h exposure) is 12^f.
`CS(=O)(=O)OCCN(CCBr)c1ccc([N+](=O)[O-])c(C(=O)NCCCN2CCOCC2)c1[N+](=O)[O-]` [IIc10, 2-[(2-Bromoethyl)-3-({[3-(4-morpholinyl)propyl]amino}carbonyl)-2,4-dinitroanilino]ethyl methanesulfonate]: the IC50 turned out to be 94 µM in series [1] (18 h exposure), 156 µM in series [5], 11 µM in series [6] and 11 µM in series [4] (18 h exposure). In series [6], the “Ratio = IC50(NR−)/IC50(NR+) Human Ovarian” value was found to be 14. Besides, the “Ratio = IC50(NR−)/IC50(NR+) Human colon” value in series [4] (WIDR / WC14.10, 18 h exposure) was 8.2.
Regarding `CS(=O)(=O)OCCN(CCBr)c1c([N+](=O)[O-])ccc(C(N)=O)c1[N+](=O)[O-]` [IIc2, 2-[3-(Aminocarbonyl)(2-bromoethyl)-2,6-dinitroanilino]ethyl methanesulfonate], the IC50 was found to be 85 µM in series [1] (18 h exposure), 150 µM in series [5], 0.21 µM in series [6] and 0.31 µM in series [4] (18 h exposure). In series [6], the “Ratio = IC50(NR−)/IC50(NR+) Human Ovarian” value turned out to be 724. For the same compound, the “Ratio = IC50(NR−)/IC50(NR+) Human colon” value in series [4] (WIDR / WC14.10, 18 h exposure) amounted to 271.
